Data as given in PMC8799717, “Pharmacological targeting PIKfyve and tubulin as an effective treatment strategy for double-hit lymphoma” (Cell Death Discovery, 2022).

Key:
Assay in all cases: biochemical
Set-up in all cases: KINOMEscan active-site-directed competition binding panel, 468 kinases, percent of DMSO control at 1 uM
Details in all cases: KINOMEscan binding, percent of DMSO control; read-out: Ctrl%
[1] = target: T1, ABL1(F317I)-phosphorylated (Homo sapiens, UniProt P00519, F317I)
T1 construct: phosphorylated

[2] = target: T2, ABL1(F317L)-phosphorylated (Homo sapiens, UniProt P00519, F317L)
T2 construct: phosphorylated

[3] = target: T3, ABL1(Q252H)-nonphosphorylated (Homo sapiens, UniProt P00519, Q252H)
T3 construct: nonphosphorylated

AURKA = AURKA (Homo sapiens, UniProt O14965)
BRSK2 = BRSK2 (Homo sapiens, UniProt Q8IWQ3)
CAMK2D = CAMK2D (Homo sapiens, UniProt Q13557)
DCAMKL3 = target: T4, DCAMKL3 (Homo sapiens, UniProt Q9C098)
T4 construct: gene DCLK3

EGFR(L861Q) = EGFR(L861Q) (Homo sapiens, UniProt P00533, L861Q)
ERK1 = target: T5, ERK1 (Homo sapiens, UniProt P27361)
T5 construct: gene MAPK3

FYN = FYN (Homo sapiens, UniProt P06241)
GRK2 = GRK2 (Homo sapiens, UniProt P25098)
[4] = target: T6, JAK2(JH1domain-catalytic) (Homo sapiens, UniProt O60674)
T6 construct: JH1domain-catalytic

MARK4 = MARK4 (Homo sapiens, UniProt Q96L34)
MET(M1250T) = MET(M1250T) (Homo sapiens, UniProt P08581, M1250T)
NEK6 = NEK6 (Homo sapiens, UniProt Q9HC98)
NEK7 = NEK7 (Homo sapiens, UniProt Q8TDX7)
PHKG2 = PHKG2 (Homo sapiens, UniProt P15735)
[5] = target: T7, RSK2(Kin.Dom.1-N-terminal) (Homo sapiens, UniProt P51812)
T7 construct: gene RPS6KA3; Kin.Dom.1-N-terminal

[6] = target: T8, RSK2(Kin.Dom.2-C-terminal) (Homo sapiens, UniProt P51812)
T8 construct: gene RPS6KA3; Kin.Dom.2-C-terminal

TNK1 = TNK1 (Homo sapiens, UniProt Q13470)
TXK = TXK (Homo sapiens, UniProt P42681)
YANK1 = target: T9, YANK1 (Homo sapiens, UniProt Q8WU08)
T9 construct: gene STK32A

ZAP70 = ZAP70 (Homo sapiens, UniProt P43403)

Sequence of GRK2 (P25098 whole entry): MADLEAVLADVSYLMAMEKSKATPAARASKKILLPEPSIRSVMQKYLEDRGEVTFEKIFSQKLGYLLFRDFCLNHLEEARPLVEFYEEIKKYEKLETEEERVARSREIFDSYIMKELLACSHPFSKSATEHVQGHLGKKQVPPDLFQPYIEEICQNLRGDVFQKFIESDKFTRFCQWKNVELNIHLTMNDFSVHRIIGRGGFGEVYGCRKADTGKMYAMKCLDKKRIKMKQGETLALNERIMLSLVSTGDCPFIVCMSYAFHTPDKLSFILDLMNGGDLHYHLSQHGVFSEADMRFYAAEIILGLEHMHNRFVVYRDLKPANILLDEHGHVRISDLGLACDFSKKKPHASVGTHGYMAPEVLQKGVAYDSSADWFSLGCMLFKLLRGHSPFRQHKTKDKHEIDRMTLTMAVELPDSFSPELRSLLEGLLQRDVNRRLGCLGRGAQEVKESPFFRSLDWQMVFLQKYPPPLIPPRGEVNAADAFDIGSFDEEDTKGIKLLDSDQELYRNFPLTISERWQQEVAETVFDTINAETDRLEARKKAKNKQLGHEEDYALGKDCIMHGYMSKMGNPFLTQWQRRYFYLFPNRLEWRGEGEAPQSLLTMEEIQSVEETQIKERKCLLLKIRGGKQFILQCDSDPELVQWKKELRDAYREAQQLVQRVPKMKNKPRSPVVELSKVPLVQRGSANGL
Sequence of TNK1 (Q13470 whole entry): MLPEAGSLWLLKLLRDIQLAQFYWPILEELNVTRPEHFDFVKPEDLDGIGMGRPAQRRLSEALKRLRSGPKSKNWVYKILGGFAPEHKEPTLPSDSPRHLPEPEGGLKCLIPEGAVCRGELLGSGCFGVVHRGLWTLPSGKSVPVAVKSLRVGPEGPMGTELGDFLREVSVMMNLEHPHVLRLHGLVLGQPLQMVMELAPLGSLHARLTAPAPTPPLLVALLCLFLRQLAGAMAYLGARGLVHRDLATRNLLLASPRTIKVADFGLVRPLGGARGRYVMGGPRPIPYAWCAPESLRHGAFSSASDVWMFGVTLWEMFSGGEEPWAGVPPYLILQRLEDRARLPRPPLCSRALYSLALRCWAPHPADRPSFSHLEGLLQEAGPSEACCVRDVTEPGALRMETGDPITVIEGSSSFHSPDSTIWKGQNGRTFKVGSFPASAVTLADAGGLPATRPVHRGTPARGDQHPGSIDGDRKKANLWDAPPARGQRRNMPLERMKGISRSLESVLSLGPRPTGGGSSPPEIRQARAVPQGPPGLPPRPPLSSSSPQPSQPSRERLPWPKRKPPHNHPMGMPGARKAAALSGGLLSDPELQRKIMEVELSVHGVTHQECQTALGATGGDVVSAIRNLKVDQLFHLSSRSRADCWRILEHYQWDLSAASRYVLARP
T6 sequence (O60674 whole entry): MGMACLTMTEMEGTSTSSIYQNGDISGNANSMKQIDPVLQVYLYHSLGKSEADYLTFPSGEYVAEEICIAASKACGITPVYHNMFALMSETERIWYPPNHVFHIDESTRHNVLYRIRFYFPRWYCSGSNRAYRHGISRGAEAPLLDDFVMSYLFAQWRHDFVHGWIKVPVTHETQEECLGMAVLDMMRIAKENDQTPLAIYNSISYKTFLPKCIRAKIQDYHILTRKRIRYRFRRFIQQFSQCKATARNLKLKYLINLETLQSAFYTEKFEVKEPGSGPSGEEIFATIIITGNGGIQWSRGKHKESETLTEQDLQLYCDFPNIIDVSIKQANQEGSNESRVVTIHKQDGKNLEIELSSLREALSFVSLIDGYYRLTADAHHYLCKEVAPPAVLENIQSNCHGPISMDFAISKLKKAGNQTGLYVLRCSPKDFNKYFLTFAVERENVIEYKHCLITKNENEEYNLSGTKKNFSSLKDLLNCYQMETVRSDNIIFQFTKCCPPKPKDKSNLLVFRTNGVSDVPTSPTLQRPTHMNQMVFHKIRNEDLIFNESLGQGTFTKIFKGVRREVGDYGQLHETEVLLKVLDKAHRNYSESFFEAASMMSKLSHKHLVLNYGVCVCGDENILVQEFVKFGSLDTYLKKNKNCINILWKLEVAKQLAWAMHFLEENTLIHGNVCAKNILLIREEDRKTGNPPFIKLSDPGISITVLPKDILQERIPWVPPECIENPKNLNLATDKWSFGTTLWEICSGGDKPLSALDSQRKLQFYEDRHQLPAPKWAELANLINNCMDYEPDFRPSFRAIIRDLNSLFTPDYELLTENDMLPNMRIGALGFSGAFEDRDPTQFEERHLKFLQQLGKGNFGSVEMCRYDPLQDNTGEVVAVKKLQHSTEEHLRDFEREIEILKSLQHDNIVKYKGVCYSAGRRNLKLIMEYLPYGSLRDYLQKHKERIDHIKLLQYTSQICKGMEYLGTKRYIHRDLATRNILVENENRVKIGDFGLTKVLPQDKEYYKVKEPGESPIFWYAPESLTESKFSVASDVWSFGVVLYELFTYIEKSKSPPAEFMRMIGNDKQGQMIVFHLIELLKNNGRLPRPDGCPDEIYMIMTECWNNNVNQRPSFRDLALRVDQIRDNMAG
Sequence of MARK4 (Q96L34 whole entry): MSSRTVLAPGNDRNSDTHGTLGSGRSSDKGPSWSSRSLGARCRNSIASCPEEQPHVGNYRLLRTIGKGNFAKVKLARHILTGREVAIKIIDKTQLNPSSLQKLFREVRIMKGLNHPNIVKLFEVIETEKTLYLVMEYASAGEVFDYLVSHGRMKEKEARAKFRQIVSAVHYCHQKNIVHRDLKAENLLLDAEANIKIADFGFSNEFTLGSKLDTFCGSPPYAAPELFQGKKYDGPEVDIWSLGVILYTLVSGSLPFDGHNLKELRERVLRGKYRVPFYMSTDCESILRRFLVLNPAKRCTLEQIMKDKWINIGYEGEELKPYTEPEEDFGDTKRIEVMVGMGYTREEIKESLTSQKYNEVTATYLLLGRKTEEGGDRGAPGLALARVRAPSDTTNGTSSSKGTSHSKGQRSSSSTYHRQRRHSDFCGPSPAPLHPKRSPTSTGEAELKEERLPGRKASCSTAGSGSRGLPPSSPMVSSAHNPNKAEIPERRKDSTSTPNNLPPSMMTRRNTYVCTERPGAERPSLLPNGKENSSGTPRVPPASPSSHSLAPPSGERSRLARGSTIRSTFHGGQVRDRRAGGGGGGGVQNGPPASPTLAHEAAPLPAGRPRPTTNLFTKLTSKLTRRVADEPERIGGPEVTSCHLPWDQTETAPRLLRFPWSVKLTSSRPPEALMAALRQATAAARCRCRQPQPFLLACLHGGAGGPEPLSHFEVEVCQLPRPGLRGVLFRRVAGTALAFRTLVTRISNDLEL
Sequence of PHKG2 (P15735 whole entry): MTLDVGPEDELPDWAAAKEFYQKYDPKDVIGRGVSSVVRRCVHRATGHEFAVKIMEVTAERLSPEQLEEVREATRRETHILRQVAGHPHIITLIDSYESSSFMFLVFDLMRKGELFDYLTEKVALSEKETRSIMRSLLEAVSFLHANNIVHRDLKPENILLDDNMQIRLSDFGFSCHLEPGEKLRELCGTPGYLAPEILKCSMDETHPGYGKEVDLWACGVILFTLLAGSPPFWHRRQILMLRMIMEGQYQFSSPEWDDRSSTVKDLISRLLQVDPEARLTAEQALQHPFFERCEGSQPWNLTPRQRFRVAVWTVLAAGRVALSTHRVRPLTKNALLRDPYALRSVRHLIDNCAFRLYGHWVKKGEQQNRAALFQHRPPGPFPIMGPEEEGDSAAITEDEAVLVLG
T4 sequence (Q9C098 whole entry): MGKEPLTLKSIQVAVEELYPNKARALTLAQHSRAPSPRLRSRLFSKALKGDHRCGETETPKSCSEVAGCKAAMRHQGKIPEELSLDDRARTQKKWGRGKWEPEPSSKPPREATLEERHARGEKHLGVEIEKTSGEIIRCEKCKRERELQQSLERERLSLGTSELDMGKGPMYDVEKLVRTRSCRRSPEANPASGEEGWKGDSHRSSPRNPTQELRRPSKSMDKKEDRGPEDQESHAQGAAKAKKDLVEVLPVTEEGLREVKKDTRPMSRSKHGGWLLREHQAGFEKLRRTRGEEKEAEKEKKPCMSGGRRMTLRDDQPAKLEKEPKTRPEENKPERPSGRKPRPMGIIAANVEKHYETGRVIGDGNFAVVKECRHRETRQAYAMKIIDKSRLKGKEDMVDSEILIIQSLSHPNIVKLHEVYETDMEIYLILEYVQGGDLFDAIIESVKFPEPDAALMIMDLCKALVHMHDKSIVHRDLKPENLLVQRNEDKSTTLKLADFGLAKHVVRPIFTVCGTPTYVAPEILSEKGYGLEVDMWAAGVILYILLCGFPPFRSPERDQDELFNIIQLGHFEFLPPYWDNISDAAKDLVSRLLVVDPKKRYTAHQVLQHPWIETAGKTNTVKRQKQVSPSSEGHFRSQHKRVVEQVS
Sequence of NEK7 (Q8TDX7 whole entry): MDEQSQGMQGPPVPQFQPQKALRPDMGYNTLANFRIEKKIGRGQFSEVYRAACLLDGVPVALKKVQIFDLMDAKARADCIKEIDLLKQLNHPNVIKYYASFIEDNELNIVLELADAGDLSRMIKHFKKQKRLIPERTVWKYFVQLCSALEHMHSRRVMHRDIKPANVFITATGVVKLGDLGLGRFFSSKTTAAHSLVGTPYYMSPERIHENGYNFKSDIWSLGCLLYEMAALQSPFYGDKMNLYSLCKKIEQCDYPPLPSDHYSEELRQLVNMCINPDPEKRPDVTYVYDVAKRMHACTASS
Sequence of NEK6 (Q9HC98 whole entry): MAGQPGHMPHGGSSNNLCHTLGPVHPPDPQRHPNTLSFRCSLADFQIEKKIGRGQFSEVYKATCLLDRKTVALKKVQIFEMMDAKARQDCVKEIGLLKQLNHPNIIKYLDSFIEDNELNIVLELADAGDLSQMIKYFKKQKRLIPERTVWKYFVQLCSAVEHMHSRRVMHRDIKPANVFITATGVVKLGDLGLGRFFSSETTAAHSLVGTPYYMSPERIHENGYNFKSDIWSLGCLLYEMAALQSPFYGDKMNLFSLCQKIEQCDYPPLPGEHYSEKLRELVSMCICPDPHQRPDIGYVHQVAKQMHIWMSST

Cc1ccc(NC(=O)c2cccc(C(F)(F)F)c2)cc1Nc1cc(-c2cccnc2)nc2[nH]ccc12 [HZX-02-059]
remaining binding at 1 µM [1]: 55%
remaining binding at 1 µM [2]: 65%
remaining binding at 1 µM [3]: 30%
remaining binding at 1 µM (AURKA): 100%
remaining binding at 1 µM (BRSK2): 99%
remaining binding at 1 µM (CAMK2D): 100%
remaining binding at 1 µM (DCAMKL3): 81%
remaining binding at 1 µM (EGFR(L861Q)): 76%
remaining binding at 1 µM (ERK1): 99%
remaining binding at 1 µM (FYN): 85%
remaining binding at 1 µM (GRK2): 100%
remaining binding at 1 µM [4]: 100%
remaining binding at 1 µM (MARK4): 100%
remaining binding at 1 µM (MET(M1250T)): 100%
remaining binding at 1 µM (NEK6): 98%
remaining binding at 1 µM (NEK7): 73%
remaining binding at 1 µM (PHKG2): 92%
remaining binding at 1 µM [5]: 78%
remaining binding at 1 µM [6]: 100%
remaining binding at 1 µM (TNK1): 91%
remaining binding at 1 µM (TXK): 78%
remaining binding at 1 µM (YANK1): 92%
remaining binding at 1 µM (ZAP70): 76%
